Measurements reported in patent publication US20240247031A1, “COMPOSITION FOR TREATING CANCER CONTAINING TELOMERASE-TARGETING GNRH ANTAGONIST-DERIVED PEPTIDE HS1002” (Research & Business Foundation Sungkyunkwan University, priority 2023, published 2024).

Columns and labels:
[1] = test system: BAX, C-PARP, Bcl-2 in LNCaP; experiment: Western blot of proteins involved in apoptosis (FIG. 9); format: cell-based, human; details: different concentrations, 48 h
Experimental: The prostate cancer cell line (LNCaP) was seeded into six-well plates and then incubated in an incubator for one day. The peptides were diluted in fresh media and then used to treat the cells. After 48 h, the media were removed, the plates were washed twice with DPBS, and 1 mL of trypsin was placed in each well to separate the cells, and 5 mL of media were added to each well to dilute the trypsin, followed by centrifugation at 1000 rpm for 5 min, thereby preparing the cells. Thereafter, proteins were extracted using a Pro-prep protein extraction kit, separated by electrophoresis, and blotted onto a membrane. The membrane was blocked by a Blotting-Grade Blocker at room temperature for 1 hour, and then primary antibodies (1000:1) were added, followed by incubation at 4° C. for one day. Thereafter, the membrane was repeatedly washed with 1×TBST (Tris 25 g, NaCl 120 g in D.W.+[…] 0.1%) every 10 min for 1 h. Then, secondary antibodies (10000:1) were added, followed by incubation at room temperature for 1 h, and then the membrane was repeatedly washed with 1×TBST every 10 min for 1 h. After incubation with […] substrates for 5 min, desired protein bands were identified using a Chemi-doc system.

c-Myc = c-Myc protein expression and transcriptional activity in LNCaP (FIG. 12); format: cell-based, human; details: 300 μM, 72 h
Experimental: The cells and tumor tissues were homogenized using the PRO-PREP™ extraction solution (iNtRON Biotechnology, Seongnam, Korea). After incubation, the homogenate was centrifuged at 16,000×g for 20 min at 4° C., and the supernatant was collected for western blot analysis. Subsequently, an equivalent quantity of protein was separated using sodium dodecyl sulfate polyacrylamide gels and transferred onto a polyvinylidene difluoride (PVDF) membrane. The PVDF membranes were incubated with the primary antibodies overnight at 4° C., washed with tris-buffered saline, and then incubated with HRP-conjugated anti-mouse or anti-rabbit antibodies. The bands were visualized using a ChemiDoc imaging system (Bio-Rad, Hercules, CA, USA). The band intensities were determined using an Image J software.
The c-Myc Transcription Factor Assay Kit (Cat. ab207200, abcam) was used to quantify the activation of c-Myc in nuclear extracts after peptide treatment. […] The protein concentration was quantified using the Bradford method (798 μL Bradford, 200 μL water, and 2 μL of the protein) at a wavelength of 595 nm (SmartSpecPlus; BioRad). For the detection of c-Myc transcriptional activity, 5 μg of the isolated nuclear extracts were used, and the absorbance was measured on a spectrophotometer (Synergy HT; BioTek) at OD 450 nm. […]

[2] = test system: Ki-67 and hTERT in LNCaP tumor tissue; experiment: Ki-67 immunohistochemistry and hTERT immunoblotting in xenograft tumor tissue (FIG. 18); format: in vivo, mouse; details: s.c. administration, compared with the control group
Experimental: Mice were sacrificed, and the excised tumors were fixed in 10% formalin and impregnated with paraffin. For pathological examination, immunohistochemistry was performed by the avidin-biotin complex method using Ki-67 antibodies. The immune response was visualized with a reagent (3,3-diaminobenzidine) and counter-stained with Mayer's hematoxylin. TUNEL assay in tissue was performed using ApopTag Plus Peroxidase in Situ Apoptosis Detection kits (Intergen, Purchase, NY)) according to the manufacturer's indications. In summary, paraffin was removed from slides, and the slides were placed in 3% hydrogen peroxide to inhibit endogenous peroxidase. The slides were incubated in a reaction buffer containing an enzyme (terminal deoxynucleotidyl transferase) at 37° C. for 1 h. The slides were incubated with peroxidase-conjugated anti-digoxigenin antibodies for 30 min, and the reaction product was visualized with a solution containing 2 mmol hydrogen peroxide (0.03% 3,3-diaminobenzidine solution). Counterstaining was performed with 0.5% methyl green. Ki-67- and TUNEL-positive cells were counted and expressed as an average of the five highest areas within a single×200 field. A portion of tumor tissue was homogenized, followed by immunoblotting for hTERT.

MC38 tumor = experiment: MC38 syngeneic mouse tumor model (FIG. 19); format: in vivo; details: 1 mg/kg s.c. every day
Experimental: All mice were purchased from Central Lab Animal Inc. ([…]). They were raised in a 12 h environmental light/dark cycle with controlled temperature (22±2° C.) conditions. The experimental protocol was approved by the Sungkyunkwan University Institutional Animal Care and Use Committee (SKKUIACUC2021-06-27-1, SKKUIACUC2023-01-07-1). For the establishment of tumors, LNCaP (1×10^7), MC38 (2×10^5), and 4T1 (1×10^6) suspended in serum-free media containing 50% Matrigel was subcutaneously administered in the right flank of mice, respectively. The tumor volumes (V) were calculated using a caliper and the standard equation: V (mm^3)=0.52 (ab^2) (a=length, b=width). Once the tumor reached 100-200 mm^3, the mice were randomly divided into different groups and subcutaneously injected with a vehicle or each peptide every day.
The sequences of the TERT peptide are highly conserved in human and mouse, indicating its potential translatability to mouse cancer. […] Hot tumors are generally more responsive to immunotherapy. In contrast, ‘Cold’ tumors such as the 4T1 tumor model lack infiltrating T cells and often have a low tumor mutational burden. Without a pre-existing adaptive immune response, cold tumors are insensitive to immunotherapy. […]

CCNC(=O)[C@@H]1CCCN1C(=O)[C@@H](NC(=O)[C@H](Cc1ccccc1)NC(=O)[C@H](CCCNC(=N)N)NC(=O)[C@H](CC(C)C)NC(=O)[C@H](CCCNC(=N)N)NC(=O)[C@H](Cc1ccc(O)cc1)NC(=O)[C@H](CO)NC(=O)[C@H](Cc1c[nH]c2ccccc12)NC(=O)[C@H](Cc1c[nH]cn1)NC(=O)[C@@H]1CCC(=O)N1)[C@@H](C)CC [HS1002]
expression level of BAX [1]: increased
expression level of Bcl-2 [1]: decreased
expression level of C-PARP [1]: increased
c-Myc protein expression (c-Myc): significantly decreased
c-Myc transcriptional activity (c-Myc): significantly decreased
Ki-67 protein expression level in tumor tissues [2]: distinctively reduced
hTERT protein expression level in tumor tissues [2]: distinctively reduced
tumor volume (MC38 tumor): diminished
tumor weight (MC38 tumor): diminished
